Source: patent US6737383B1, “Herbicidal oxadiazolidines” (priority 1999, dated 2004)

Key:
blackgrass = experiment: Test B pre/postemergence blackgrass; format: in vivo, Alopecurus myosuroides
In short: (§1)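 Test chemicals in a non-phytotoxic solvent mixture with surfactant were sprayed preemergence onto planted seeds and postemergence onto plants 2 to 18 cm tall (1- to 4-leaf stage). After twelve to sixteen days in a greenhouse, injury was visually rated against untreated controls from 0 (no effect) to 10 (complete control).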

crabgrass = experiment: Test B pre/postemergence crabgrass; format: in vivo, Digitaria sanguinalis
In short: as §1

rape = experiment: Test B pre/postemergence rape; format: in vivo, Brassica napus
In short: as §1

surinam grass = experiment: Test B pre/postemergence surinam grass; format: in vivo, Brachiaria decumbens
In short: as §1

wheat = experiment: Test B pre/postemergence wheat; format: in vivo, Triticum aestivum
In short: as §1

soybean = experiment: Test B pre/postemergence soybean; format: in vivo, Glycine max
In short: as §1

corn = experiment: Test B pre/postemergence corn; format: in vivo, Zea mays
In short: as §1

purple nutsedge = experiment: Test B pre/postemergence purple nutsedge; format: in vivo, Cyperus rotundus
In short: as §1

velvetleaf = experiment: Test B pre/postemergence velvetleaf; format: in vivo, Abutilon theophrasti
In short: as §1

duck salad = experiment: Test B flood test duck salad; format: in vivo, Heteranthera limosa
In short: (§2)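 Each value is a visual injury score relative to controls, with 10 meaning complete control and 0 no effect. Evaluation took place twelve to sixteen days after the 2-leaf-stage plants were treated and kept in the greenhouse.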

cocklebur = experiment: Test B pre/postemergence cocklebur; format: in vivo, Xanthium strumarium
In short: as §1

pigweed = experiment: Test B pre/postemergence pigweed; format: in vivo, Amaranthus retroflexus
In short: as §1

smallflower flatsedge = experiment: Test B flood test smallflower flatsedge; format: in vivo, Cyperus difformis
In short: as §2

morningglory = experiment: Test B pre/postemergence morningglory; format: in vivo, Ipomoea hederacea
In short: as §1

wild oat = experiment: Test B pre/postemergence wild oat; format: in vivo, Avena fatua
In short: as §1

bamyardgrass = experiment: Test B flood test barnyardgrass; format: in vivo, Echinochloa crus-galli
In short: as §2

sugar beet = experiment: Test B pre/postemergence sugar beet; format: in vivo, Beta vulgaris
In short: as §1

bedstraw = experiment: Test B pre/postemergence bedstraw; format: in vivo, Galium aparine
In short: as §1

rice = experiment: Test B flood test rice; format: in vivo, Oryza sativa
In short: as §2

giant foxtail = experiment: Test B pre/postemergence giant foxtail; format: in vivo, Setaria faberii
In short: as §1

[1] = Postemergence, Rate 31 g/ha, visual rating, scale 0 to 10 (0 no effect, 10 complete control)
[2] = Postemergence, Rate 62 g/ha, scale 0 to 10, 0 is no effect, 10 is complete control
[3] = Postemergence, Rate 125 g/ha, scale of 0 to 10 where 0 is no effect and 10 is complete control
[4] = Preemergence, Rate 31 g/ha, visual rating, scale 0 to 10 (0 no effect, 10 complete control)
[5] = Preemergence, Rate 62 g/ha, scale 0 to 10 (0 no effect, 10 complete control)
[6] = Preemergence, Rate 125 g/ha, scale of 0 to 10 where 0 is no effect and 10 is complete control
[7] = Preemergence, Rate 250 g/ha, scale 0 to 10 (0 no effect, 10 complete control)
[8] = Rate 31 g/ha, Pre-emergence section (flood test species), scale 0 to 10
[9] = Rate 62 g/ha, flood test species, Pre-emergence, visual evaluation after twelve to sixteen days
[10] = Rate 125 g/ha, under heading Pre-emergence, flood test species, visual evaluation after twelve to sixteen days
[11] = Rate 250 g/ha, Pre-emergence (flood test species), scale 0 to 10, 0 is no effect, 10 is complete control

Q: `CCOC(=O)CC(C(=O)OCC)n1c(=O)on(C(=O)N(c2ccccc2)C(C)C)c1=O` (stereo not shown) [Compound 614] was tested. Which “Blackgrass plant response rating” value (blackgrass; [1]) did it give?
A: 0

Q: What about the “Plant response rating, Blackgrass” value (blackgrass; [2]) of the same compound?
A: 0

Q: And the “Plant response rating, Blackgrass” value (blackgrass; [3])?
A: 0

Q: What about the “Blackgrass plant response rating” value (blackgrass; [4]) of the same compound?
A: 0

Q: What about the “Blackgrass plant response rating” value (blackgrass; [5]) of the same compound?
A: 0

Q: What about the “Blackgrass plant response rating” value (blackgrass; [6]) of the same compound?
A: 0

Q: And the “Plant response rating, Blackgrass” value (blackgrass; [7])?
A: 3

Q: What about the “Crabgrass plant response rating” value (crabgrass; [1]) of the same compound?
A: 0

Q: What about the “Plant response rating, Crabgrass” value (crabgrass; [2]) of the same compound?
A: 0

Q: And the “Plant response rating, Crabgrass” value (crabgrass; [3])?
A: 1

Q: And the “Crabgrass plant response rating” value (crabgrass; [4])?
A: 0

Q: What about the “Crabgrass plant response rating” value (crabgrass; [5]) of the same compound?
A: 0

Q: And the “Crabgrass plant response rating” value (crabgrass; [6])?
A: 6

Q: What about the “Plant response rating, Crabgrass” value (crabgrass; [7]) of the same compound?
A: 8

Q: And the “Rape plant response rating” value (rape; [1])?
A: 0

Q: What about the “Plant response rating, Rape” value (rape; [2]) of the same compound?
A: 0

Q: And the “Plant response rating, Rape” value (rape; [3])?
A: 0

Q: What about the “Rape plant response rating” value (rape; [5]) of the same compound?
A: 0

Q: What about the “Rape plant response rating” value (rape; [6]) of the same compound?
A: 0

Q: And the “Plant response rating, Rape” value (rape; [7])?
A: 0

Q: And the “B. signalgrass plant response rating” value (surinam grass; [1])?
A: 0

Q: And the “Plant response rating, B. signalgrass” value (surinam grass; [2])?
A: 0

Q: What about the “Plant response rating, B. signalgrass” value (surinam grass; [3]) of the same compound?
A: 0

Q: And the “B. signalgrass plant response rating” value (surinam grass; [4])?
A: 0

Q: What about the “B. signalgrass plant response rating” value (surinam grass; [5]) of the same compound?
A: 0

Q: And the “B. signalgrass plant response rating” value (surinam grass; [6])?
A: 0

Q: What about the “Plant response rating, B. signalgrass” value (surinam grass; [7]) of the same compound?
A: 0

Q: And the “Wheat plant response rating” value (wheat; [1])?
A: 0

Q: What about the “Plant response rating, Wheat” value (wheat; [2]) of the same compound?
A: 0

Q: What about the “Plant response rating, Wheat” value (wheat; [3]) of the same compound?
A: 0

Q: What about the “Wheat plant response rating” value (wheat; [5]) of the same compound?
A: 0

Q: What about the “Wheat plant response rating” value (wheat; [6]) of the same compound?
A: 0

Q: And the “Plant response rating, Wheat” value (wheat; [7])?
A: 0

Q: And the “Soybean plant response rating” value (soybean; [1])?
A: 2

Q: And the “Plant response rating, Soybean” value (soybean; [2])?
A: 3

Q: What about the “Plant response rating, Soybean” value (soybean; [3]) of the same compound?
A: 3

Q: What about the “Soybean plant response rating” value (soybean; [5]) of the same compound?
A: 0

Q: And the “Soybean plant response rating” value (soybean; [6])?
A: 0

Q: What about the “Plant response rating, Soybean” value (soybean; [7]) of the same compound?
A: 0

Q: And the “Corn plant response rating” value (corn; [1])?
A: 0

Q: What about the “Plant response rating, Corn” value (corn; [2]) of the same compound?
A: 0

Q: What about the “Plant response rating, Corn” value (corn; [3]) of the same compound?
A: 0

Q: What about the “Corn plant response rating” value (corn; [4]) of the same compound?
A: 0

Q: What about the “Corn plant response rating” value (corn; [5]) of the same compound?
A: 0

Q: What about the “Corn plant response rating” value (corn; [6]) of the same compound?
A: 0

Q: And the “Plant response rating, Corn” value (corn; [7])?
A: 0

Q: And the “Nutsedge plant response rating” value (purple nutsedge; [1])?
A: 0

Q: What about the “Plant response rating, Nutsedge” value (purple nutsedge; [2]) of the same compound?
A: 0

Q: And the “Plant response rating, Nutsedge” value (purple nutsedge; [3])?
A: 0

Q: And the “Nutsedge plant response rating” value (purple nutsedge; [6])?
A: 0

Q: And the “Plant response rating, Nutsedge” value (purple nutsedge; [7])?
A: 0

Q: And the “Velvetleaf plant response rating” value (velvetleaf; [1])?
A: 0

Q: And the “Plant response rating, Velvetleaf” value (velvetleaf; [2])?
A: 0

Q: What about the “Plant response rating, Velvetleaf” value (velvetleaf; [3]) of the same compound?
A: 0

Q: And the “Velvetleaf plant response rating” value (velvetleaf; [5])?
A: 0

Q: What about the “Velvetleaf plant response rating” value (velvetleaf; [6]) of the same compound?
A: 0

Q: And the “Plant response rating, Velvetleaf” value (velvetleaf; [7])?
A: 0

Q: And the “Ducksalad plant response rating” value (duck salad; [8])?
A: 0

Q: What about the “Plant response rating, Ducksalad (0 to 10 scale, 0 is no effect, 10 is complete control)” value (duck salad; [9]) of the same compound?
A: 0

Q: And the “Ducksalad plant response rating (0 to 10 scale, 0 is no effect, 10 is complete control)” value (duck salad; [10])?
A: 0

Q: And the “Ducksalad plant response rating” value (duck salad; [11])?
A: 0

Q: What about the “Cocklebur plant response rating” value (cocklebur; [1]) of the same compound?
A: 0

Q: And the “Plant response rating, Cocklebur” value (cocklebur; [2])?
A: 0

Q: What about the “Plant response rating, Cocklebur” value (cocklebur; [3]) of the same compound?
A: 0

Q: What about the “Cocklebur plant response rating” value (cocklebur; [4]) of the same compound?
A: 0

Q: And the “Cocklebur plant response rating” value (cocklebur; [5])?
A: 0

Q: And the “Cocklebur plant response rating” value (cocklebur; [6])?
A: 0

Q: What about the “Plant response rating, Cocklebur” value (cocklebur; [7]) of the same compound?
A: 0

Q: And the “Redroot pigweed plant response rating” value (pigweed; [1])?
A: 0

Q: And the “Plant response rating, Redroot pigweed” value (pigweed; [2])?
A: 0

Q: What about the “Plant response rating, Redroot pigweed” value (pigweed; [3]) of the same compound?
A: 0

Q: And the “Redroot pigweed plant response rating” value (pigweed; [5])?
A: 0

Q: And the “Redroot pigweed plant response rating” value (pigweed; [6])?
A: 0

Q: What about the “Plant response rating, Redroot pigweed” value (pigweed; [7]) of the same compound?
A: 0

Q: And the “S. Flatsedge plant response rating” value (smallflower flatsedge; [8])?
A: 0

Q: What about the “Plant response rating, S. Flatsedge (0 to 10 scale, 0 is no effect, 10 is complete control)” value (smallflower flatsedge; [9]) of the same compound?
A: 0

Q: What about the “S. Flatsedge plant response rating (0 to 10 scale, 0 is no effect, 10 is complete control)” value (smallflower flatsedge; [10]) of the same compound?
A: 0

Q: And the “S. Flatsedge plant response rating” value (smallflower flatsedge; [11])?
A: 0

Q: And the “Morningglory plant response rating” value (morningglory; [1])?
A: 0

Q: And the “Plant response rating, Morningglory” value (morningglory; [2])?
A: 2

Q: What about the “Plant response rating, Morningglory” value (morningglory; [3]) of the same compound?
A: 2

Q: What about the “Morningglory plant response rating” value (morningglory; [5]) of the same compound?
A: 0

Q: What about the “Morningglory plant response rating” value (morningglory; [6]) of the same compound?
A: 0

Q: What about the “Plant response rating, Morningglory” value (morningglory; [7]) of the same compound?
A: 0

Q: And the “Wild oats plant response rating” value (wild oat; [1])?
A: 0

Q: What about the “Plant response rating, Wild oats” value (wild oat; [2]) of the same compound?
A: 0

Q: What about the “Plant response rating, Wild oats” value (wild oat; [3]) of the same compound?
A: 0

Q: And the “Wild oats plant response rating” value (wild oat; [5])?
A: 0

Q: And the “Wild oats plant response rating” value (wild oat; [6])?
A: 0

Q: And the “Plant response rating, Wild oats” value (wild oat; [7])?
A: 0

Q: And the “Barnyardgrass plant response rating” value (bamyardgrass; [8])?
A: 0

Q: What about the “Plant response rating, Barnyardgrass (0 to 10 scale, 0 is no effect, 10 is complete control)” value (bamyardgrass; [9]) of the same compound?
A: 0

Q: What about the “Barnyardgrass plant response rating (0 to 10 scale, 0 is no effect, 10 is complete control)” value (bamyardgrass; [10]) of the same compound?
A: 0

Q: What about the “Barnyardgrass plant response rating” value (bamyardgrass; [11]) of the same compound?
A: 0

Q: What about the “Sugarbeets plant response rating” value (sugar beet; [1]) of the same compound?
A: 0

Q: And the “Plant response rating, Sugarbeets” value (sugar beet; [2])?
A: 0

Q: And the “Plant response rating, Sugarbeets” value (sugar beet; [3])?
A: 0

Q: What about the “Sugarbeets plant response rating” value (sugar beet; [5]) of the same compound?
A: 0

Q: What about the “Sugarbeets plant response rating” value (sugar beet; [6]) of the same compound?
A: 0

Q: And the “Plant response rating, Sugarbeets” value (sugar beet; [7])?
A: 0

Q: What about the “Plant response rating, Bedstraw” value (bedstraw; [3]) of the same compound?
A: 0

Q: What about the “Bedstraw plant response rating” value (bedstraw; [4]) of the same compound?
A: 0

Q: What about the “Bedstraw plant response rating” value (bedstraw; [5]) of the same compound?
A: 0

Q: What about the “Plant response rating, Bedstraw” value (bedstraw; [7]) of the same compound?
A: 0

Q: And the “Rice plant response rating” value (rice; [8])?
A: 0

Q: What about the “Plant response rating, Rice (0 to 10 scale, 0 is no effect, 10 is complete control)” value (rice; [9]) of the same compound?
A: 0

Q: What about the “Rice plant response rating (0 to 10 scale, 0 is no effect, 10 is complete control)” value (rice; [10]) of the same compound?
A: 0

Q: And the “Rice plant response rating” value (rice; [11])?
A: 0

Q: What about the “Giant foxtail plant response rating” value (giant foxtail; [1]) of the same compound?
A: 0

Q: What about the “Plant response rating, Giant foxtail” value (giant foxtail; [2]) of the same compound?
A: 0

Q: And the “Plant response rating, Giant foxtail” value (giant foxtail; [3])?
A: 0

Q: What about the “Giant foxtail plant response rating” value (giant foxtail; [4]) of the same compound?
A: 0

Q: What about the “Giant foxtail plant response rating” value (giant foxtail; [5]) of the same compound?
A: 0

Q: What about the “Giant foxtail plant response rating” value (giant foxtail; [6]) of the same compound?
A: 4

Q: What about the “Plant response rating, Giant foxtail” value (giant foxtail; [7]) of the same compound?
A: 9
